IC50 and Cmax data for one compound are collected here from PMC6017115, “Inhibitory Effect of Sauchinone on UDP-Glucuronosyltransferase (UGT) 2B7 Activity” (Molecules : A Journal of Synthetic Chemistry and Natural …, 2018).

One data set addresses T1, Ugt1a9 (Mus musculus, UniProt Q62452).
T1 construct: from tissue; host or cells: mouse liver microsomes prepared in house
T1 sequence (Q62452 24-528): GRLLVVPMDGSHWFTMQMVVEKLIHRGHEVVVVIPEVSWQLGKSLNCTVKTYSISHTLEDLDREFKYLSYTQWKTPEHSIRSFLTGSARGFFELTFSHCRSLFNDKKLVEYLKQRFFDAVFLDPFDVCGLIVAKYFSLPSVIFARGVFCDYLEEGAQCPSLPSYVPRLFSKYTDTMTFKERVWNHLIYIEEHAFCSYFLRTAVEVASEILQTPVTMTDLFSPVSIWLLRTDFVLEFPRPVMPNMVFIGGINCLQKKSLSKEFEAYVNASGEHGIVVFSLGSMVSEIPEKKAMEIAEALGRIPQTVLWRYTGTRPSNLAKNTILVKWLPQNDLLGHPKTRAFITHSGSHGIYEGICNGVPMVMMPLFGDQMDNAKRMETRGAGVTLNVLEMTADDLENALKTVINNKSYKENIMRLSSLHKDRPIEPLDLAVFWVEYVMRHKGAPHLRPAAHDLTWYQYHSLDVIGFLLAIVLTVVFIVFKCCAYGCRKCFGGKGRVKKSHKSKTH
The data set is described as follows: Inhibition of Ugt1a9 (propofol) in mice liver microsomes. Type of data set: in vitro ADME. The conditions noted are these: pH 7.6, probe propofol (100 μM, in UGT substrate cocktail), read-out: IC50 of Ugt1a9-catalyzed propofol. As for the experimental part:
(§1) Their IC50 values were compared to that of sauchinone. […] Mice were sacrificed and then livers were removed and rinsed with saline. After weighing the livers, they were homogenized with a four-fold volume of ice-cold homogenizing buffer (0.154 M KCl, 50 mM Tris-base, 1 mM EDTA, pH 7.4). After centrifugation for 35 min at 9000× g and 4 °C, the supernatants were centrifuged for 95 min at 100,000× g and at 4 °C. The supernatants were discarded and the pellets were homogenized again with ice-cold homogenizing buffer. These aliquots were stored at −80 °C. The subsequent process to evaluate the inhibitory effects of sauchinone on UGT activities in MLM was the same as those using HLM. UGT-mediated activities in the presence of sauchinone as an inhibitor were expressed as percentages of corresponding control values (in absence of sauchinone). From percentages of control activity versus inhibitor concentrations, a sigmoid shaped curve was fitted to the data and IC50 as an enzyme inhibition parameter was calculated by fitting the Hill equation to the data using GraphPad Prism 5 (GraphPad Software Inc., San Diego, CA, USA).
Background: Liver microsomes are a subcellular fraction often used to study metabolism.

For another data set, the target named is T2, Ugt1a1 (Mus musculus, UniProt Q63886).
T2 construct: from tissue; host or cells: mouse liver microsomes prepared in house
T2 sequence (Q63886 30-535): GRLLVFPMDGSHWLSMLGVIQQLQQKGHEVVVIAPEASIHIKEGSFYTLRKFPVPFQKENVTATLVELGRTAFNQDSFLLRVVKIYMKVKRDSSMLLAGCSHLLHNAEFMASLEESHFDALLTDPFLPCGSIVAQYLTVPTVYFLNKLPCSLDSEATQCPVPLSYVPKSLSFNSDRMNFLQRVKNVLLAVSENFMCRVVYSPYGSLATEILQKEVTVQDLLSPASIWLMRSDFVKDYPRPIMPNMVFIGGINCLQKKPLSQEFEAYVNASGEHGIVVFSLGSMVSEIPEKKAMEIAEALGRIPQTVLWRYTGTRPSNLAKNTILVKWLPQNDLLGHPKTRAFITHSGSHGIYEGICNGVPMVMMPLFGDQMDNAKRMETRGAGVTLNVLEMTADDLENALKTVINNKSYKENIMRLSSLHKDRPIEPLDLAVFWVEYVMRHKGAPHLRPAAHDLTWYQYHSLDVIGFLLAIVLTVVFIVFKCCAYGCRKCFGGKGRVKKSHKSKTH
Put plainly: Inhibition of Ugt1a1 (β-estradiol) in mice liver microsomes. The conditions noted are these: pH 7.6, probe β-estradiol (10 μM, in UGT substrate cocktail), read-out: IC50 of Ugt1a1-catalyzed β-estradiol. Type of data set: in vitro ADME. As to the method:
as §1

Details of data set [1]: method as in PMID 25747980. The conditions noted are these: mice; oral administration of 100 mg/kg sauchinone; read-out: Cmax in mice plasma; cited from earlier work.

As a reminder, the IC50 is the concentration needed to halve the response being measured. The Cmax is the maximum level reached in the sampled fluid or tissue.

Take `C[C@@H]1[C@H]2c3cc4c(cc3O[C@@]35OCOC3=CC(=O)[C@H](C[C@H]1C)[C@@H]25)OCO4` [Sauchinone]: the results for the concentration for half-maximal inhibition (IC50) on Ugt1a9 and on Ugt1a1 were 29.8 µM and 152 µM, respectively. In data set [1], the Cmax was 1530 nM.
